Assay results reported in patent EP0679649B1, “2,3-Dihydrobenzofuran Derivatives” (Asahi Kasei Kogyo Kabushiki Kaisha, priority 1993, dated 1994).

Legend:
adrenaline α1 receptor = experiment: Affinity for adrenaline α1 receptor (inhibition of 3H-Prazosin binding to rat cerebral cortex membrane fraction); conditions: for Ki: rat cerebral cortex membrane fraction, radioligand 3H-Prazosin, compounds tested as hydrochloride salt
Method: A male SD strain rat (7-week old; Charles River) was decapitated, and brain was taken out therefrom quickly. Cerebral cortex of the rat was separated and extracted at […] under ice cooling. The extracted cerebral cortex was frozen at -80 °C for 24 hours or longer. This frozen system was gradually thawed under ice cooling and then, 50 mM Tris-HCl buffer (pH 7.4) was added to the brain under ice cooling to obtain a suspension. The resultant suspension was homogenized, and then subjected to centrifugation at 48000 g for 15 minutes, to thereby obtain a precipitate. The precipitate thus obtained was washed twice and resuspended in the same Tris-HCl buffer as used above. […] The total volume amount of the reaction mixture was 1 ml. The resultant reaction mixture was subjected to suction filtration using a Whatman GF/C filter, and the filter was washed three times in 50 mM Tris-HCl buffer (pH 7.4, 4 ml), transferred to a vial and then, the radioactivity of Prazosin absorbed on the filter was determined using a liquid scintillation counter. […] Further, substantially the same procedure as mentioned above was repeated, except that, instead of Prazosin, a test compound was used in a predetermined concentration. […] The binding inhibition ratios were plotted, taking the logarithmic value of the concentration of the test compound as the abscissa value, and the binding inhibition ratio as the ordinate value. Then, a curve was drawn by non-linear least square method.

serotonin 1A receptor = molecular target: T1, serotonin 1A receptor (Rattus norvegicus, UniProt P19327); experiment: Affinity for serotonin 1A receptor (inhibition of 3H-8-OH-DPAT binding to rat hippocampal membrane fraction); conditions: radioligand 3H-8-OH-DPAT, compounds tested as hydrochloride salt, read-out: 5-HT1A Ki
T1 construct: The resultant precipitate was used as a rat hippocampal membrane fraction in the following procedures; from tissue; host or cells: brain (hippocampal) membrane fraction of male SD rat
T1 sequence (P19327 1-422): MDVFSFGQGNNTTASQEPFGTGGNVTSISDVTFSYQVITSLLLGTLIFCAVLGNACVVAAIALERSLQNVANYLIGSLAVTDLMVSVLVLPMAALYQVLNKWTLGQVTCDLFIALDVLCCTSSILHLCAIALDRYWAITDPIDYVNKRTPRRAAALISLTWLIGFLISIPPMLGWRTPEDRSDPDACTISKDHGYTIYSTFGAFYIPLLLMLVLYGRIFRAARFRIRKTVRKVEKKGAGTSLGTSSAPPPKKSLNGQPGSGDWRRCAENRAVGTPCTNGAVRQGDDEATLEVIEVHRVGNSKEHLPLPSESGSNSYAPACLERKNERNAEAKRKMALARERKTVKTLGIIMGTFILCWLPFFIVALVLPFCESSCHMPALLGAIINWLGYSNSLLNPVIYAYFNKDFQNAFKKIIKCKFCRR

male Wistar strain rats = experiment: Anti-depression activity (forced swimming test using rats); type: in vivo, rat; conditions: for Time spent in immobile state: 30 minutes before test, observed for 6 minutes, 6 rats, physiological saline 200; for time spent in the immobile state (result in words): hydrochloride, 30 mg/kg and 60 mg/kg p.o.
Excerpt: When a rat is put in a water tank, the rat struggles for its life to get out of the water (that is, the rat starts a "forced swimming"). If the rat finds that it is impossible for him to get out, the rat stops swimming and assumes an immobile state. It has been known that the administration of an antidepressant can cause a violent swimming motion in the rat for getting out of the water, with a result that the time spent in the immobile state is shortened. The shortening of the time in the immobile state of the rat in the forced swimming test by the administration of the antidepressant is well correlated to the clinical anti-depression effect. Accordingly, in developing antidepressants, the forced swimming test using a rat is the most reliable screening method. In the present test, male Wistar strain rats were used. Compounds obtained in Examples 1, 17 and 18 of the present invention (each in the form of a hydrochloride thereof) were, individually, orally administered to a rat. 30 minutes after the administration, the rat was put in a water tank and then, observed for 6 minutes. The time of the rat spent in the immobile state was measured.

mice = experiment: Toxicity test (intraperitoneal administration to mice); type: in vivo; conditions: intraperitoneally administered to mice, 100 mg/kg
[1] = Dose 30 mg/kg p.o. (hydrochloride), 30 mg/kg

Molecule	Ki (adrenaline α1 receptor)	Ki (serotonin 1A receptor)	further results
CCN(CCCCNC(=O)c1ccccc1)CC1Cc2ccccc2O1 (stereo not shown) [Example 25, 2-{N-(4-benzoylaminobutyl)-N-ethyl}aminomethyl-2,3-dihydrobenzo[b]furan]	710 nM	3.1 nM	–
O=C(NCCCCNCC1Cc2ccccc2O1)c1ccccc1 (stereo not shown) [Example 1, 2-{N-(4-benzoylaminobutyl)}aminomethyl-2,3-dihydrobenzo[b]furan]	350 nM	2.9 nM	Time spent in immobile state (male Wistar strain rats; [1]): 117 s; time spent in the immobile state (result in words) (male Wistar strain rats): remarkably shortened the time spent in the immobile state; mortality / toxicity (mice): none of the mice died
O=C(NCCCCNCC1Cc2ccccc2O1)c1ccc(F)cc1 (stereo not shown) [Example 11, 2,3-dihydro-2-[N-{4-(4-fluorobenzoylamino)butyl}]aminomethylbenzo[b]furan]	300 nM	2.6 nM	–
O=C(NCCCCNCC1Cc2ccccc2O1)c1ccccc1O (stereo not shown) [Example 29, 2,3-dihydro-2-[N-{4-(2-hydroxybenzoylamino)butyl}]aminomethylbenzo[b]furan]	260 nM	5.4 nM	–
O=C(NCCNCC1Cc2ccccc2O1)c1ccccc1 (stereo not shown) [Example 19, 2-{N-(2-benzoylaminoethyl)}aminomethyl-2,3-dihydrobenzo[b]furan]	–	3.7 nM	–
Cc1ccc(C(=O)NCCCCNCC2Cc3ccccc3O2)cc1 (stereo not shown) [Example 5, 2,3-dihydro-2-[N-{4-(4-methylbenzoylamino)-butyl}]aminomethylbenzo[b]furan]	290 nM	12 nM	–
O=C(NCCCCNCC1Cc2ccccc2O1)c1cccc(F)c1 (stereo not shown) [Example 10, 2,3-dihydro-2-[N-{4-(3-fluorobenzoylamino)butyl}]aminomethylbenzo[b]furan]	420 nM	3 nM	–
Cc1cccc(C(=O)NCCCCNCC2Cc3ccccc3O2)c1 (stereo not shown) [Example 4, 2,3-dihydro-2-[N-{4-(3-methylbenzoylamino)butyl}]aminomethylbenzo[b]furan]	270 nM	1.2 nM	–
O=C(NCCCCNCC1Cc2ccccc2O1)c1cccc(C(F)(F)F)c1 (stereo not shown) [Example 13, 2,3-dihydro-2-[N-{4-(3-trifluoromethylbenzoylamino)butyl}]aminomethylbenzo[b]furan]	380 nM	5.3 nM	–
O=S(=O)(NCCCCNCC1Cc2ccccc2O1)c1ccccc1 (stereo not shown) [Example 2, 2-{N-(4-benzenesulfonamidobutyl)}aminomethyl-2,3-dihydrobenzo[b]furan]	270 nM	11 nM	–
CN(CCCCNC(=O)c1ccccc1)CC1Cc2ccccc2O1 (stereo not shown) [Example 24, 2-{N-(4-benzoylaminobutyl)-N-methyl}aminomethyl-2,3-dihydrobenzo[b]furan]	760 nM	11 nM	–
O=C(NCCNCC1Cc2ccccc2O1)c1ccc(F)cc1 (stereo not shown) [Example 21, 2-[N-{2-(4-fluorobenzoyl)aminoethyl}]aminomethyl-2,3-dihydrobenzo[b]furan]	–	2 nM	–
^3H-Prazosin [reference compound]	–	–	Kd (adrenaline α1 receptor; value used in the Ki calculation, read-out: Kd of the radioactive ligand for the adrenaline α1 receptor): 0.133 nM
COc1cccc(C(=O)NCCCCNCC2Cc3ccccc3O2)c1 (stereo not shown) [Example 7, 2,3-dihydro-2-[N-{4-(3-methoxybenzoylamino)butyl}]aminomethylbenzo[b]furan]	340 nM	4.3 nM	–
O=C(NCCCCNCC1Cc2ccccc2O1)c1ccccc1 (single isomer, unassigned; (-)) [Example 18, (-)-2-{N-(4-benzoylaminobutyl)}aminomethyl-2,3-dihydrobenzo[b]furan]	270 nM	1.3 nM	Time spent in immobile state (male Wistar strain rats; [1]): 142 s; time spent in the immobile state (result in words) (male Wistar strain rats): remarkably shortened the time spent in the immobile state
O=C(NCCCCNCC1Cc2ccccc2O1)c1cccc([N+](=O)[O-])c1 (stereo not shown) [Example 15, 2,3-dihydro-2-[N-{4-(3-nitrobenzoylamino)butyl}]aminomethylbenzo[b]furan]	250 nM	11 nM	–
O=C(NCCCNCC1Cc2ccccc2O1)c1ccc(F)cc1 (stereo not shown) [Example 23, 2-[N-{3-(4-fluorobenzoylamino)propyl}]aminomethyl-2,3-dihydrobenzo[b]furan]	–	12 nM	–
O=C(NCCCCNCC1Cc2ccccc2O1)c1ccccc1 (single isomer, unassigned; (+)) [Example 17, (+)-2-{N-(4-benzoylamino)butyl}aminomethyl-2,3-dihydrobenzo[b]furan]	–	–	Time spent in immobile state (male Wistar strain rats; Dose 60 mg/kg p.o. (hydrochloride)): 142 s; time spent in the immobile state (result in words) (male Wistar strain rats): remarkably shortened the time spent in the immobile state
Cc1cccc(C(=O)NCCNCC2Cc3ccccc3O2)c1 (stereo not shown) [Example 20, 2-[N-{2-(3-methylbenzoylamino)ethyl}]aminomethyl-2,3-dihydrobenzo[b]furan]	–	1.6 nM	–
O=C(NCCCCNCC1Cc2ccccc2O1)c1ccccc1F (stereo not shown) [Example 9, 2,3-dihydro-2-[N-{4-(2-fluorobenzoylamino)butyl}]aminomethylbenzo[b]furan]	330 nM	8.2 nM	–
